Holding throughout (assay type): cell-based
Assay [1] concerns HEK293 cells overexpressing APOL1 G2. In words: APOL1 G2 HEK293 cell rescue assay (reversal of cell death caused by overexpression of APOL1). The following applies: Homo sapiens, HEK293, HEK293 overexpressing APOL1 G2; geometric mean of at least 2 assay runs; † = single assay run. Summed up: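 Each compound tested in duplicate wells on one plate per run, with values usually the geometric mean across at least two runs on different days, occasionally from one run only. Read-out: concentration giving half-maximal rescue of APOL1 G2 overexpression-induced death of HEK293 cells.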

A further assay deals with T1, APOL1 G2 (Homo sapiens, UniProt O14791, DEL388-389).
T1 construct: expressed in transfected cells; host or cells: HEK293 T-REx clonal line stably expressing GCaMP6f (HEK T-REx/GCaMP6f/APOL1 G2 K6.3), doxycycline induced
T1 sequence (O14791 with tags, fused parts or gaps DEL388-389): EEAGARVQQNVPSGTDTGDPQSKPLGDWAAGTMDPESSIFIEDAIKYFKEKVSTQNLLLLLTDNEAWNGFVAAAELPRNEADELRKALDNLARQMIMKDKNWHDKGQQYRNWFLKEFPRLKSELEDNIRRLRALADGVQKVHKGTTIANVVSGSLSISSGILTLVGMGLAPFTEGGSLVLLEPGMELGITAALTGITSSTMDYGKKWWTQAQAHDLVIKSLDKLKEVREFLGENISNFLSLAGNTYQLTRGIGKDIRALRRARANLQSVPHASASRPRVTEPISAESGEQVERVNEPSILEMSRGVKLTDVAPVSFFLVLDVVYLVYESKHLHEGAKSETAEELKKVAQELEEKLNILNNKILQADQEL
In words: APOL1-mediated calcium transport (calcium influx) assay, HEK T-REx/GCaMP6f/APOL1 G2 K6.3 cells, FLIPR TETRA. The following applies: prevention of calcium influx; geometric mean of at least 2 assay runs; † = average of a technical replicate from a single assay run. The gist of the method: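 A HEK293 T-REx clone stably expressing GCaMP6f had APOL1 G2 induced with doxycycline (20 ng/mL solution added) for 6 h. Cells were then washed into Ca2+-free Tyrode's buffer (pH 7.4) and preincubated with compounds (duplicate 8-point) for 10 min at room temperature. Ca2+ injection to 5 mM final produced FLIPR GCaMP fluorescence, giving AC50 for influx inhibition (geometric mean, ≥2 runs).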

The subject of assay [2] is HEK293 clonal cell line overexpressing APOL1 G1. The assay can be described thus: APOL1 G1 HEK293 cell rescue assay (Example B3). The following applies: Homo sapiens, HEK293, HEK293 clonal line overexpressing APOL1 G1; geometric mean of at least 2 runs; † = single run; ¥ = concentration at 50% rescue estimated (no sigmoidal curve). The gist of the method: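 Rescue of cell death caused by APOL1 G1 overexpression was measured in a clonal HEK293 line. Compounds were tested in duplicate on one plate, and EC50s were geometric means across at least two runs on different days. Some values are estimated 50%-rescue concentrations where curve fitting failed.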

Regarding `[2H]C([2H])(Oc1cnc2c(c1)CCC(=O)N2[C@H]1C[C@](O)(C([2H])([2H])[2H])C1)C([2H])([2H])N1CCC2(CC1)C(=O)Nc1ccc(Cl)cc12` [Compound 462, 5-chloro-1′-[2-({7-oxo-8-[(cis)-3-hydroxy-3-(^2H3)methylcyclobutyl]-5,6,7,8-tetrahydro-1,8-naphthyridin-3-yl}oxy)(1,1,2,2-^2H4)ethyl]-1,2-dihydrospiro[indole-3,4′-piperidin]-2-one], the results for the EC50 in assay [1] and in assay [2] were 17.8 nM and 53.4 nM, respectively. The AC50 on APOL1 G2 is 943 nM.

Take `O=C1CCC2c3ccc(OCCN4CCC5(CC4)C(=O)Nc4ccc(Cl)cc45)cc3CCN12` (stereo not drawn) [Compound 121, 5-chloro-1′-[2-({3-oxo-1H,2H,3H,5H,6H,10bH-pyrrolo[2,1-a]isoquinolin-8-yl}oxy)ethyl]-1,2-dihydrospiro[indole-3,4′-piperidin]-2-one]: the EC50 in assay [1] was 81.2 nM; in assay [2], 249 nM. Further, the AC50 on APOL1 G2 came to 508 nM.

For `CC1(O)CC(N2C(=O)CCc3cc(OCCN4CCC5(CC4)C(=O)Nc4ccc(Cl)cc45)cnc32)C1` (stereo not drawn) [Compound 315, 5-chloro-1′-(2-{[8-(3-hydroxy-3-methylcyclobutyl)-7-oxo-5,6,7,8-tetrahydro-1,8-naphthyridin-3-yl]oxy}ethyl)-1,2-dihydrospiro[indole-3,4′-piperidin]-2-one], the EC50 is 25.7 nM in assay [1] and 86 nM in assay [2]. Moreover, the AC50 at APOL1 G2 was found to be 330 nM.

For `CC(C)(CO)c1ncc(OCCN2CCC3(CC2)C(=O)Nc2ccc(C#N)cc23)cn1` [Compound 432, 1′-(2-{[2-(1-hydroxy-2-methylpropan-2-yl)pyrimidin-5-yl]oxy}ethyl)-2-oxo-1,2-dihydrospiro[indole-3,4′-piperidine]-5-carbonitrile], the EC50 in assay [1] was 161 nM; in assay [2], 288 nM. In addition, the half-maximal activity concentration (AC50) at APOL1 G2 worked out at 2560 nM.

On to `[2H]C([2H])([2H])N1C(=O)C2(CCN(CCOc3ccc(C4CCN(S(C)(=O)=O)CC4)cc3)CC2)c2cc(Cl)ccc21` [Compound 412, 5-chloro-1′-{2-[4-(1-methanesulfonylpiperidin-4-yl)phenoxy]ethyl}-1-(^2H3)methyl-1,2-dihydrospiro[indole-3,4′-piperidin]-2-one], for which the EC50 in assay [1] was 45.3 nM; in assay [2] it was 70.7 nM. Also, the AC50 on APOL1 G2 was 2900 nM.

Turning to `O=C1Nc2ccc(Cl)cc2C12CCN(CCOc1cnc(N3CC4(C3)CS(=O)(=O)C4)nc1)CC2` [Compound 304, 6-[5-(2-{5-chloro-2-oxo-1,2-dihydrospiro[indole-3,4′-piperidin]-1′-yl}ethoxy)pyrimidin-2-yl]-2λ^6-thia-6-azaspiro[3.3]heptane-2,2-dione], the EC50 in assay [1] was 134 nM; in assay [2], 286 nM. For the same compound, the AC50 on APOL1 G2 is 1010 nM.

`NC(=O)c1ccc(OCCN2CCC3(CC2)C(=O)Nc2ccc(Cl)cc23)cn1` [Compound 47, 5-(2-{5-chloro-2-oxo-1,2-dihydrospiro[indole-3,4′-piperidin]-1′-yl}ethoxy)pyridine-2-carboxamide]: the EC50 in assay [1] is 148 nM; in assay [2], 399 nM. In addition, on APOL1 G2, the AC50 amounted to 641 nM.

Turning to `[2H]C([2H])([2H])N1C(=O)C2(CCN(CCOc3cc(F)c4c(c3)CCNS4(=O)=O)CC2)c2cc(Cl)ccc21` [Compound 421, 6-{2-[5-chloro-1-(^2H3)methyl-2-oxo-1,2-dihydrospiro[indole-3,4′-piperidin]-1′-yl]ethoxy}-8-fluoro-3,4-dihydro-2H-1λ^6,2-benzothiazine-1,1-dione], the EC50 in assay [1] was 34.5 nM; in assay [2] it was 83.3 nM. The AC50 on APOL1 G2 was determined as 564 nM.

On to `CN(C)c1ncc(OCCN2CCC3(CC2)C(=O)Nc2ccc(Cl)cc23)cn1` [Compound 303, 5-chloro-1′-(2-{[2-(dimethylamino)pyrimidin-5-yl]oxy}ethyl)-1,2-dihydrospiro[indole-3,4′-piperidin]-2-one], for which the EC50 in assay [1] was 156 nM; in assay [2] it was 351 nM. For the same compound, at APOL1 G2, the AC50 is 822 nM.

For `CN1C(=O)C2(CCN(CCOc3ccc4nccnc4c3)CC2)c2ccccc21` [Compound 34, 1-methyl-1′-[2-(quinoxalin-6-yloxy)ethyl]-1,2-dihydrospiro[indole-3,4′-piperidin]-2-one], the EC50 was 1330 nM in assay [1] and above 1960 nM in assay [2]. Moreover, at APOL1 G2, the AC50 was found to be 168 nM.

As for `CC(c1ccc(OCCN2CCC3(CC2)C(=O)Nc2ccc(Cl)cc23)cc1)S(C)(=O)=O` (stereo not drawn) [Compound 38, 5-chloro-1′-{2-[4-(1-methanesulfonylethyl)phenoxy]ethyl}-1,2-dihydrospiro[indole-3,4′-piperidin]-2-one], the EC50 in assay [1] was 59 nM; in assay [2], 222 nM. The AC50 on APOL1 G2 stood at 307 nM.

Regarding `CS(=O)(=O)c1ccc(OCCN2CCC3(CC2)C(=O)Nc2ccc(C#N)cc23)cc1C(F)CF` (stereo not drawn) [Compound 220, 1′-{2-[3-(1,2-difluoroethyl)-4-methanesulfonyl-phenoxy]ethyl}-2-oxo-1,2-dihydrospiro [indole-3,4′-piperidine]-5-carbonitrile], the EC50 in assay [1] was 53 nM; in assay [2] it was 301 nM. Also, at APOL1 G2, the AC50 was 679 nM.

Regarding `C[C@]1(O)C[C@@H](n2cnc3cc(OCCN4CCC5(CC4)C(=O)Nc4ccc(Cl)cc45)cc(OC(F)F)c32)C1` [Compound 447, 5-chloro-1′-(2-{[7-(difluoromethoxy)-1-[(cis)-3-hydroxy-3-methylcyclobutyl]-1H-1,3-benzodiazol-5-yl]oxy}ethyl)-1,2-dihydrospiro[indole-3,4′-piperidin]-2-one], the EC50 in assay [1] was 34.1 nM; in assay [2], 64.3 nM. In addition, at APOL1 G2, the AC50 was 1130 nM.

`O=C1Nc2ccc(Cl)cc2C12CCN(CCOc1cnc(C3(O)COC3)nc1)CC2` [Compound 429, 5-chloro-1′-(2-{[2-(3-hydroxyoxetan-3-yl)pyrimidin-5-yl]oxy}ethyl)-1,2-dihydrospiro[indole-3,4′-piperidin]-2-one]: the values for the EC50 in assay [1] and in assay [2] were 130 nM and 200 nM, respectively. Besides, on APOL1 G2, the AC50 was determined as 435 nM.

On to `[2H]C([2H])([2H])N1C(=O)C2(CCN(CCOc3ccc(C4(S(=O)(=O)C(C)C)COC4)cc3)CC2)c2cc(Cl)ccc21` [Compound 414, 5-chloro-1-(^2H3)methyl-1′-(2-{4-[3-(propane-2-sulfonyl)oxetan-3-yl]phenoxy}ethyl)-1,2-dihydrospiro[indole-3,4′-piperidin]-2-one], for which the figures for the EC50 in assay [1] and in assay [2] were 36.7 nM and 110 nM, respectively. The AC50 at APOL1 G2 came to 347 nM.

For `CS(=O)(=O)c1ccc(OCCN2CCC3(CC2)C(=O)N([C@H]2C[C@@H](O)C2)c2ccccc23)cc1` [Compound 19, 1′-[2-(4-methanesulfonylphenoxy)ethyl]-1-[(cis)-3-hydroxycyclobutyl]-1,2-dihydrospiro[indole-3,4′-piperidin]-2-one], the EC50 is 794 nM in assay [1] and 4810 nM in assay [2]. On APOL1 G2, the AC50 turned out to be 481 nM.

As to `O=C1NCc2cc(OCCN3CCC4(CC3)C(=O)Nc3ccc(Cl)cc34)ccc21` [Compound 171, 5-chloro-1′-{2-[(1-oxo-2,3-dihydro-1H-isoindol-5-yl)oxy]ethyl}-1,2-dihydrospiro[indole-3,4′-piperidin]-2-one], the EC50 was 100 nM in assay [1] and 228 nM in assay [2]. The AC50 on APOL1 G2 amounted to 598 nM.

The values are drawn from patent US12344610B2, “APOL1 inhibitors and methods of use” (Maze Therapeutics, Inc., priority 2022, dated 2025).
